Assay results as given in article PMC8948984, “Diversified Chaetoglobosins from the Marine-Derived Fungus Emericellopsis sp. SCSIO41202” (Molecules, 2022).
Like-named read-outs stand apart in the source and are kept apart here.

Experiments:
[1] = target: acetylcholinesterase (AChE) (Homo sapiens, UniProt P22303); assay: biochemical
Method: The inhibitory effects of 4–13 on AChE were measured in vitro in 96-well plates as previously described.

[2] = tested on: PC-3 cells; assay: CCK-8 cytotoxicity assay, PC-3 cells; assay type: cell-based
Method: Compounds 4–13 were tested for their cytotoxicity against two prostatic carcinoma cell lines, PC-3 and 22Rv1, according to the reported CCK-8 (Dojindo) method. In brief, cells were seeded in a 96-well plate at the appropriate cell concentration and then incubated for 24 h at 37 °C in a 100% relative humidity, 5% CO2 incubator. Compounds to be tested were diluted to the appropriate concentration with culture medium, and the amount of each compound was adjusted to 25 μL before adding to the cells. Docetaxel (S1148, Selleck) was used as a positive control. The medium was aspirated, a fresh complete medium with 10% CCK-8 was added to incubate in a 37 °C incubator for 2-4 h, and the absorbance of the soultion at 450 nm was measured by an Envision 2104 multilabel reader (PerkinElmer). The inhibition rate was calculated by taking the absorbance at 650 nm as a reference.

[3] = in vitro, 96-well plates, read-out: AChE inhibitory activity IC50

acetylcholinesterase (AChE), sequence (P22303 32-614, species assumed): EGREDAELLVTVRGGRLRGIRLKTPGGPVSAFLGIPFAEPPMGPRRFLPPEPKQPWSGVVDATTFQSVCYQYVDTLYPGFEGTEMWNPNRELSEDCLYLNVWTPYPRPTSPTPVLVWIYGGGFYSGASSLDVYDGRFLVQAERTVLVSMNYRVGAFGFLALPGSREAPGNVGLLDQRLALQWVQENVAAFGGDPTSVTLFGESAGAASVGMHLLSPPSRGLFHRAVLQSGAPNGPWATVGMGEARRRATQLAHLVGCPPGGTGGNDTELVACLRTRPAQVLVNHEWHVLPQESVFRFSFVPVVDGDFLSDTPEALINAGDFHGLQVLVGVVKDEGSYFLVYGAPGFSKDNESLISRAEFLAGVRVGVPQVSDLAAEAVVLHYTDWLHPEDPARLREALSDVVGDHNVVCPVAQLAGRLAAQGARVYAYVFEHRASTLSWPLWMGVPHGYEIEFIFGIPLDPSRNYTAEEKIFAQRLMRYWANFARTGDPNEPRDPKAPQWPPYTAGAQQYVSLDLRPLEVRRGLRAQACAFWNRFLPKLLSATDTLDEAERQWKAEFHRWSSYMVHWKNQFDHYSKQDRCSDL

`CC1=C(C)[C@H]2[C@H](Cc3c[nH]c4ccccc34)NC(=O)[C@]23C(=O)CC[C@H](O)C(=O)/C(C)=C/[C@@H](C)C/C=C/[C@H]3[C@@H]1O` [Compound 4, chaetoglobosin E] showed an IC50 [1, 3] of 4.15 µM.
`C=C1[C@@H](C)[C@H]2[C@H](Cc3c[nH]c4ccccc34)NC(=O)[C@]23C(=O)CC[C@H](O)C(=O)/C(C)=C/[C@@H](C)C/C=C/[C@H]3[C@@H]1O` [Compound 5, chaetoglobosin Fex] showed an IC50 ([2]; Homo sapiens, PC-3, read-out: IC50 against PC-3 cells, prostatic carcinoma cell line PC-3, CCK-8, triplicate) of 2.32 µM, an IC50 ([2]; read-out: IC50 against PC-3 cells, prostatic carcinoma cell line PC-3, CCK-8, triplicate, listed as C5) of 2.32 µM and an IC50 [1] of 31.7 µM.
Work on `CC1=C(C)[C@H]2[C@H](Cc3c[nH]c4ccccc34)NC(=O)[C@]23C(=O)CCC(=O)C(=O)/C(C)=C/[C@@H](C)C/C=C/[C@H]3[C@@H]1O` [Compound 6, chaetoglobosin G] yielded an IC50 [1] of 8.71 µM.
`CC1=C(O)C(=O)[C@H]2CC(=O)[C@@]34C(=O)N[C@@H](Cc5c[nH]c6ccccc56)[C@@H]3C(C)=C(C)[C@@H](O)[C@@H]4/C=C/C[C@H](C)[C@H]12` [Compound 8, chaetoglobosin V] showed an IC50 [1, 3] of 1.31 µM.
For `CC1=C(O)C(=O)[C@@H]2CC(=O)[C@@]34C(=O)N[C@@H](Cc5c[nH]c6ccccc56)[C@@H]3C(C)=C(C)[C@@H](O)[C@@H]4/C=C/C[C@H](C)[C@@H]12` [Compound 9, chaetoglobosin Vb], the IC50 [1, 3] was 23.7 µM.
`CC(=O)O[C@@]12CO[C@@H]1C[C@H](O)[C@@]1(C)C(=O)[C@H](O)C3=C(C)[C@@H](OC(=O)[C@H](O)[C@@H](NC(=O)OC(C)(C)C)c4ccccc4)C[C@@](O)([C@@H](OC(=O)c4ccccc4)[C@H]21)C3(C)C` [docetaxel, reference compound] was tested, and the IC50 ([2]; Homo sapiens, prostatic carcinoma cell line PC-3, CCK-8, triplicate, read-out: IC50 against PC-3 cells) was 0.12 µM.
